Patent US12062444B2, “Methods and compositions related to triple-negative breast cancer” (THE UNIVERSITY OF CHICAGO, priority 2017, dated 2024)
“Also recorded” adds a separate entry of the source. Read-outs that look alike come from different tables or passages of the source.

Key:
[1] = system: MDA-MB-231 tumor xenograft; test: Murine TNBC xenograft, tumor re-growth after treatment; type: in vivo, SCID mice
Protocol: MDA-MB-231 tumors were established in the right pectoral mammary gland of n=23 five- or six-week old female SCID mice (Taconic). Tumor volume was measured by caliper and then calculated using the elliptical volume equation (43). […] Tumor volume was measured by caliper until reaching a volume of approximately 2000 mm^3 or 40 days post-treatment initiation. Tumor data were analyzed using the repeated measures ANOVA using SigmaPlot 11.2 (Systat Software), and p-values between treatment groups over time were obtained using the Holm-Sidak post-hoc test.
Next, we studied the in vivo effect of GR activity in paclitaxel-treated GR+TNBC-bearing female SCID mice (n=23). MDA-MB-231 xenograft tumors were established subcutaneously in the mammary fat pad of 6-week old female mice. […] The mice were treated daily for five days with intraperitoneally with C297 (or vehicle), one hour prior to paclitaxel. The one-hour pre-treatment of the GR modulator was intended to compete with endogenous GC (murine corticosterone and cortisol (68)) bound to the tumor cell GR LBD. The 5 sequential dosing was selected to mimic an intensive adjuvant chemotherapy schedule often used in early-stage TNBC. Following cessation of the 5d treatment, time to tumor xenograft re-growth was measured as a readout for time to relapse post-treatment (43, 46).

SUM-159-PT cells = conditions: Pac 10 nM, Dex 100 nM, C297 1 μM; 72 hours
Protocol: After compound treatment, cells were fixed in 10% trichloroacetic acid (TCA) at 4° C. overnight. […] Absorbance at λ=510 nm was measured, and relative percentage dead/alive cells was calculated based on minimal and maximal optical densities measured per plate. The experiment was performed in three biological replicates per cell line. P-values comparing the means of cell death percentages were obtained using the two-sample Student's t-test (Graphpad).

GR LBD = biological target: T1, GR LBD (Homo sapiens, UniProt P04150); test: Ligand titration assay via fluorescence polarimetry (displacement of F-Dex); type: binding; conditions: for Fit of FP dose response curve (half-maximal FP signal): log(inhibitor) vs. normalized response, FIG. 7
T1 construct: The wild-type GR-LBD (amino acid residues 522-777) was cloned into a pFASTBAC plasmid; 6X-His (TEV-cleavable) (cleaved yes); made in house; host or cells: SF9 insect cells (baculovirus, pFASTBAC)
T1 sequence (P04150 522-777): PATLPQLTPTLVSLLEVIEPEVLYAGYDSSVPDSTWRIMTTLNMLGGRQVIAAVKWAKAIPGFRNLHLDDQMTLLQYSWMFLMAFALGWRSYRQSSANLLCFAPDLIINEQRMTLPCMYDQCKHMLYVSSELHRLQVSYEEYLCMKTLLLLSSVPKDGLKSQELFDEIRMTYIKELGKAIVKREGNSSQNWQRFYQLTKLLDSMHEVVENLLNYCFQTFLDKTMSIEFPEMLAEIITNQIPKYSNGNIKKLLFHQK
Protocol: SF9 insect cells were transfected with recombinant bacmid and virus (collected after 6 days) was amplified prior to protein expression. […] GR-LBD was purified first using Ni-affinity chromatography followed by overnight dialysis with TEV protease to remove the His tag. Extensive dialysis into 20 mM TRIS pH 8.0, 500 mM NaCl, 5% glycerol, 0.1% CHAPS, 0.25 mM TCEP was performed to obtain non-ligand-bound GR LBD. […] The purified proteins were concentrated to 5 mg/ml, flash frozen in 50 ul aliquots in N2(l), and stored at −80C.
GR LBD was diluted in assay buffer (20 mM TRIS pH 7.5, 50 mM NaCl, 0.25 mM TCEP) to a concentration of 50 nM. […] Triplicate FP measurements were scaled to maximal FP and averaged for each ligand concentration.

[2] = system: GR-regulated gene expression in MDA-MB-231 cells; test: Gene expression microarray and analysis; type: cell-based, human
Protocol: MDA-MB-231 cells were grown to 80% confluence in 15-cm dishes in DMEM with 10% FBS. […] Following compound exposure, cells were washed in PBS, and lysed in RNA lysis buffer (Qiagen) overnight at -80° C. RNA extraction, with accompanying DNase treatment, was performed using the RNeasy kit (Qiagen) following the manufacturer's protocol. […] The University of Chicago Genomics Core facility carried out the reverse transcription on the samples, followed by microarray using the Affymetrix Human U133 Plus 2.0 platform. […] A principal components analysis (PCA) was performed using the prcomp function in R (Q-mode PCA using singular value decomposition). […] Dex-regulated genes were overlapped with a list of n=5,170 differentially-expressed tumor-derived genes (in the same direction) from GR-high versus GR-low BCs (52). Ingenuity Pathway Analysis (Qiagen) of the n=462 patient-relevant and antagonist-inhibited genes was performed to obtain Activation Z-scores of the most significant Diseases and Biofunctions (cell functions).

[3] = biological target: T2, mineralocorticoid receptor (Homo sapiens, UniProt P08235); conditions: cited from earlier work
T2 sequence (P08235 1-984): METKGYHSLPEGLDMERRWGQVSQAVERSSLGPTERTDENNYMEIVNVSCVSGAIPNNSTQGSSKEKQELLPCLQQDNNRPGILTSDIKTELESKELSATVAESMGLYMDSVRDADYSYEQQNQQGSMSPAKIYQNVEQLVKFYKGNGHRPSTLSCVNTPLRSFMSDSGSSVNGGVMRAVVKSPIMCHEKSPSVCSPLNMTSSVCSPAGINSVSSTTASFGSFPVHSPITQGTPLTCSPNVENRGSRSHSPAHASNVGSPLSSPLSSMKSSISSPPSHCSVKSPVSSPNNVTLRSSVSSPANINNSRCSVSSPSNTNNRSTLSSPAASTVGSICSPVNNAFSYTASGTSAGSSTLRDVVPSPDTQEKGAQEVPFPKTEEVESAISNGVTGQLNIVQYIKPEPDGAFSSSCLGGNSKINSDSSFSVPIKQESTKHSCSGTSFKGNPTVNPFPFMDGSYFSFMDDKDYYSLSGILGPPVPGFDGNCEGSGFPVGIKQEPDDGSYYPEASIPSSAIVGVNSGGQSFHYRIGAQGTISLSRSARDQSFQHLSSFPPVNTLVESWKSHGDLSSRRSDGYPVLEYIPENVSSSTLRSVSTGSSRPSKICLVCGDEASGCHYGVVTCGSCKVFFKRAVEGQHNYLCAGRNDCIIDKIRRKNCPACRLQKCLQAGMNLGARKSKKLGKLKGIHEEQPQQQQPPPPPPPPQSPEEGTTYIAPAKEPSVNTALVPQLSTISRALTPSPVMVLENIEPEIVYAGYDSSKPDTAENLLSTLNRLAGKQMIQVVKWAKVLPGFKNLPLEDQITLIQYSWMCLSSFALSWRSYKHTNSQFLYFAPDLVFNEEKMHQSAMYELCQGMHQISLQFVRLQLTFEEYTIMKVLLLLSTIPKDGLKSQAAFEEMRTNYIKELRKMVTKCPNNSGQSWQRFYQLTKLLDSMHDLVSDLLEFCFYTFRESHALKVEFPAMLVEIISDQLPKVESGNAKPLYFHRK

GR = biological target: T3, GR (Homo sapiens, UniProt P04150); conditions: cited from earlier work
T3 sequence (P04150 1-777): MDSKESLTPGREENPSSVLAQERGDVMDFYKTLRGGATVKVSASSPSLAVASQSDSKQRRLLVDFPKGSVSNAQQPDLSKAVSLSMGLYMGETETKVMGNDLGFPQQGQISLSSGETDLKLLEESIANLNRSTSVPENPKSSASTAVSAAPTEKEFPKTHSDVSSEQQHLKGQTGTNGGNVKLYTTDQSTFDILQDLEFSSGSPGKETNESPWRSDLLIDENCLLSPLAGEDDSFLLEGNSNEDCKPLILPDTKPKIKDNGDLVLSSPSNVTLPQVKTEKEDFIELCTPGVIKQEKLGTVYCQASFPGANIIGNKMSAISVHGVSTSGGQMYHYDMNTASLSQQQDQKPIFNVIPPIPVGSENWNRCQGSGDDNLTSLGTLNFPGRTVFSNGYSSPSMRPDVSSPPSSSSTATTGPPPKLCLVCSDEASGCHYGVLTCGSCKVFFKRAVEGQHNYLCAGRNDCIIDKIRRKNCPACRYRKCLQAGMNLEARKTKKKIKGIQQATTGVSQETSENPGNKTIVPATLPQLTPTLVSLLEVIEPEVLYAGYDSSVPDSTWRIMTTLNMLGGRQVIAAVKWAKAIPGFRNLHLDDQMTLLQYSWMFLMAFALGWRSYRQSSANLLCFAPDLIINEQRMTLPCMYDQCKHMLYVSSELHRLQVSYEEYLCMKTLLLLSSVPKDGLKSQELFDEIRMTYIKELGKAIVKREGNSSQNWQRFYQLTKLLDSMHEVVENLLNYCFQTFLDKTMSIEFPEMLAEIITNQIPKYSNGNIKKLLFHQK

[4] = system: GR chromatin association in MDA-MB-231 cells; test: GR ChIP-sequencing and analysis; type: cell-based, human; conditions: 100 nM each, 60 minutes, normalized to vehicle
Protocol: MDA-MB-231 cells were grown to 80% confluence in 15-cm dishes in DMEM with 10% FBS, followed by 48h in DMEM supplemented with 2.5% charcoal-stripped FBS. […] Cells were cross-linked with 1% formaldehyde, quenched with glycine (final concentration of […]), and harvested. After cell lysis with ChIP lysis buffer (Magna ChIP A Chromatin Immunoprecipitation Kit, EMD Millipore), cells were sonicated to achieve the majority of DNA fragments between 200-400 bp. Input samples were preserved at -80° C. […] Following manufacturer's protocol, chromatin was eluted from GR ChIP and input samples. Library build and sequencing was performed at the University of Oregon Genomics Core facility using the NextSeq 500 sequencer. Quality control on sequences and adapter sequencing trimming was performed using Kapa Biosystems Illumina Library Quantification Kit. ChIP-seq analysis was carried out using the Galaxy platform (usegalaxy.org (111)). […] GR peaks for each treatment were normalized to its own input control sample. […] Selected GR peak locations in hg19 and GR peak maps were also individually analyzed using Integrative Genomics Viewer, IGV (Broad Institute (116)).

[5] = 50 nM GR LBD, 10 nM F-Dex, ligand 0 to 4000 nM
[6] = at least 1.3 fold-change over vehicle, 100 nM each, 4, 8 and 12 hours combined

CCOC[C@]12Cc3cnn(-c4ccc(F)cc4)c3C=C1CCN(S(=O)(=O)c1ccc(C(F)(F)F)cc1)C2 [C297]
Tumor re-growth with C297 monotherapy in vivo ([1]; C297/Veh versus vehicle control, FIG. 8B): not cytotoxic; also recorded: did not cause a significant delay in tumor re-growth | Paclitaxel cytotoxicity (percentage cell death) (SUM-159-PT cells): restored cytotoxic sensitivity; also recorded: modest, but significant, relative increase in paclitaxel cytotoxicity | Displacement of fluorescently-labeled Dex (F-Dex) from the GR LBD (GR LBD; [5]): low nM affinities | Fit of FP dose response curve (half-maximal FP signal) (GR LBD): able to fit data | Genes for which both GR modulators antagonized GR induction or repression by at least 25% ([2]; 100 nM with 100 nM Dex): 3,066 | Antagonized GR-regulated genes shared with the other antagonist ([2]; C297 versus Mif, 100 nM): 87% | Cell viability with C297 treatment alone in vitro (MDA-MB-231 cells; monotherapy, SRB assay, FIG. 8A, cell line not stated): not cytotoxic; also recorded: did not reduce cell viability

O=c1[nH]c(=O)c(Cc2cccc(C(F)(F)F)c2)c([C@H]2CC[C@H](c3ccccc3)CC2)[nH]1 [C335]
Displacement of fluorescently-labeled Dex (F-Dex) from the GR LBD (GR LBD; [5]): low nM affinities | Fit of FP dose response curve (half-maximal FP signal) (GR LBD): able to fit data | Binding to the mineralocorticoid receptor [3]: bind the mineralocorticoid receptor

CNCC(Cl)c1ccc(OC(C)=O)cc1.Cl (stereo not drawn) [CpdA]
Displacement of H^3-Dex in cell lysates (GR): displace H^3-Dex in cell lysates | Displacement of fluorescently-labeled Dex (F-Dex) from the GR LBD (GR LBD; [5]): did not displace F-Dex from the GR LBD | Displacement of fluorescently-labeled Dex (F-Dex) from the GR LBD (GR LBD; 50 nM GR LBD, 10 nM F-Dex, ligand 0 to 4000 nM, listed as Compound A): does not bind to ligand pocket | Fit of FP dose response curve (half-maximal FP signal) (GR LBD): does not bind the GR LBD

C[C@]12CCC(=O)C[C@@H]1CC[C@@H]1[C@@H]2CC[C@]2(C)[C@@H](O)CC[C@@H]12 [DHT, dihydrotestosterone]
Displacement of fluorescently-labeled Dex (F-Dex) from the GR LBD (GR LBD): did not observe GC competition

C[C@@H]1C[C@H]2[C@@H]3CCC4=CC(=O)C=C[C@]4(C)[C@@]3(F)[C@@H](O)C[C@]2(C)[C@@]1(O)C(=O)CO [Dex, dexamethasone]
Genome-wide GR peaks [4]: 8,448 | Paclitaxel cytotoxicity (percentage cell death) (SUM-159-PT cells): dampened paclitaxel (10 nM) cytotoxicity | Downregulated GC-mediated genes unique to Dex treatment ([2]; FIG. 9A): 41% | Downregulated GC-mediated genes unique to Dex treatment, number ([2]; FIG. 9A): 1321 | Upregulated GC-mediated genes unique to Dex treatment ([2]; FIG. 9A): 50% | Upregulated GC-mediated genes unique to Dex treatment, number ([2]; FIG. 9A): 1363 | Number of downregulated genes [2, 6]: 3,202 | Number of upregulated genes [2, 6]: 2,719 | Paclitaxel cytotoxicity (percentage cell death) (MDA-MB-231 cells; Pac 10 nM, Dex 100 nM, C297 1 μM, 96 hours): dampened paclitaxel (10 nM) cytotoxicity

CC(=O)O[C@H]1C(=O)[C@@]2(C)[C@H]([C@H](OC(=O)c3ccccc3)[C@]3(O)C[C@H](OC(=O)[C@H](O)[C@@H](NC(=O)c4ccccc4)c4ccccc4)C(C)=C1C3(C)C)[C@]1(OC(C)=O)CO[C@@H]1C[C@@H]2O [Pac, paclitaxel]
Post-treatment tumor re-growth ([1]; C297 20 mg/kg/day one hour prior to pac 10 mg/kg/day, five days): significantly smaller than vehicle | Time to tumor re-growth to a 6× increase of tumor volume ([1]; C297 20 mg/kg/day one hour prior to pac 10 mg/kg/day, five days, i.p.): 27 days

C[C@]12CCC(=O)C=C1CC[C@@H]1[C@@H]2[C@@H](O)C[C@@]2(C)[C@H]1CC[C@]2(O)C(=O)CO [cortisol]
Fit of FP dose response curve (half-maximal FP signal) (GR LBD): able to fit data
